Data set [1] deals with NG108-15. The data set is described as follows: Intrinsic agonist activity at delta opioid receptor in mouse/rat NG108-15 cells assessed as increase in ERK1/2 phosphorylation at 0.1 to 5 uM incubated for 20 mins by Western blot method. It counts as cell-based.
Data set [2] is filed under the species Mus musculus. The data set is described as follows: Selectivity index, ratio of Ki for kappa opioid receptor in mouse brain membranes to Ki for delta opioid receptor in mouse brain membranes. It counts as cell membranes.
For data set [3], the target named is Delta-type opioid receptor (Mus musculus, UniProt P32300). The data set is described as follows: Displacement of [3H]DPDPE from delta opioid receptor in mouse brain membranes by liquid scintillation counting method. In kind it is cell membranes, Membrane.
The next data set deals with Mu-type opioid receptor (Mus musculus, UniProt P42866). Briefly: Displacement of [3H]DAMGO from mu opioid receptor in mouse brain membranes by liquid scintillation counting method. It counts as cell membranes, Membrane. (In general: In a radioligand displacement assay an active substance lowers the binding of a labelled ligand.)
The subject of data set [4] is NG108-15. The data set is described as follows: Intrinsic agonist activity at delta opioid receptor in mouse/rat NG108-15 cells assessed as increase in ERK1/2 phosphorylation At 1 nM pre-treated with 500 nM opioid antagonist naloxone for 5 mins followed by compound exposure for 20 mins by Western blot method. It counts as cell-based. Background: Immunoblotting shows a protein as a band on a membrane.

The species entered for data set [5] is Mus musculus. Briefly: Selectivity index, ratio of Ki for mu opioid receptor in mouse brain membranes to Ki for delta opioid receptor in mouse brain membranes. In kind it is cell membranes.
Data set [6] has as its target Kappa-type opioid receptor (Mus musculus, UniProt P33534). The data set is described as follows: Displacement of [3H]U-69,593 from kappa opioid receptor in mouse brain membranes by liquid scintillation counting method. It counts as cell membranes, Membrane.
Data set [7] concerns the target Delta-type opioid receptor (Mus musculus) (UniProt P32300). The data set is described as follows: Agonist activity at delta opioid receptor in mouse vas deferens assessed as reduction in electric field stimulation-induced twitch contractions amplitude.
Data set [8] shares this target. Briefly: Agonist activity at delta opioid receptor in mouse vas deferens assessed as reduction in electric field stimulation-induced twitch contractions amplitude in presence of 1 nM natrindole.
The test system of data set [9] is NG108-15. The data set is described as follows: Intrinsic agonist activity at delta opioid receptor in mouse/rat NG108-15 cells assessed as increase in ERK1/2 phosphorylation at 1 to 50 uM incubated for 20 mins by Western blot method. It counts as cell-based.
Data set [10] has as its target Delta-type opioid receptor (Mus musculus) (UniProt P32300). The data set is described as follows: Agonist activity at delta opioid receptor in mouse vas deferens assessed as reduction in electric field stimulation-induced twitch contractions amplitude relative to control.
The subject of data set [11] is NG108-15. Briefly: Intrinsic agonist activity at delta opioid receptor in mouse/rat NG108-15 cells assessed as increase in ERK1/2 phosphorylation At 5 nM pre-treated with 500 nM opioid antagonist naloxone for 5 mins followed by compound exposure for 20 mins by Western blot method. In kind it is cell-based.
Data set [12] has as its system NG108-15. Briefly: Intrinsic agonist activity at delta opioid receptor in mouse/rat NG108-15 cells assessed as increase in ERK1/2 phosphorylation at 50 nM pre-treated with 500 nM opioid antagonist naloxone for 5 mins followed by compound exposure for 20 mins by Western blot method. It counts as cell-based.
Data set [13] has as its system NG108-15. Briefly: Intrinsic agonist activity at delta opioid receptor in mouse/rat NG108-15 cells assessed as increase in ERK1/2 phosphorylation by Western blot method. In kind it is cell-based. Conditions: TDE = time-dependent effect.
Data set [14] has as its system NG108-15. The data set is described as follows: Intrinsic agonist activity at delta opioid receptor in mouse/rat NG108-15 cells assessed as increase in ERK1/2 phosphorylation at 10 nM pre-treated with 500 nM opioid antagonist naloxone for 5 mins followed by compound exposure for 20 mins by Western blot method. It counts as cell-based.
Data set [15] has as its system NG108-15. Briefly: Intrinsic agonist activity at delta opioid receptor in mouse/rat NG108-15 cells assessed as increase in ERK1/2 phosphorylation at 0.1 to 100 uM iincubated for 20 mins by Western blot method. In kind it is cell-based.
For data set [16], the system named is NG108-15. Briefly: Toxicity in mouse/rat NG108-15 cells. It counts as cell-based.

pKi: −log10 of the molar value. Active and inactive are the calls of the source. The rule behind the calls is not given here.

Delta-type opioid receptor, sequence (P32300 whole entry): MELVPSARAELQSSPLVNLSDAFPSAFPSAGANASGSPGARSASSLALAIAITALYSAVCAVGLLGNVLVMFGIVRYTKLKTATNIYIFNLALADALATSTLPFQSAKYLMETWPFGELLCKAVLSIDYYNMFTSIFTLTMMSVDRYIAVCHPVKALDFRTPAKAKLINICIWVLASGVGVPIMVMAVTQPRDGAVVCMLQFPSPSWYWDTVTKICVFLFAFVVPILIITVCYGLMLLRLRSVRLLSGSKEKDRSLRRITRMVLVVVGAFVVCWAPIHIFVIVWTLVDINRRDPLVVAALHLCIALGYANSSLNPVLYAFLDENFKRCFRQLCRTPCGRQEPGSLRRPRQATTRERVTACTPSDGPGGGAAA
Delta-type opioid receptor (Mus musculus), sequence (P32300 whole entry): as above
Kappa-type opioid receptor, sequence (P33534 whole entry): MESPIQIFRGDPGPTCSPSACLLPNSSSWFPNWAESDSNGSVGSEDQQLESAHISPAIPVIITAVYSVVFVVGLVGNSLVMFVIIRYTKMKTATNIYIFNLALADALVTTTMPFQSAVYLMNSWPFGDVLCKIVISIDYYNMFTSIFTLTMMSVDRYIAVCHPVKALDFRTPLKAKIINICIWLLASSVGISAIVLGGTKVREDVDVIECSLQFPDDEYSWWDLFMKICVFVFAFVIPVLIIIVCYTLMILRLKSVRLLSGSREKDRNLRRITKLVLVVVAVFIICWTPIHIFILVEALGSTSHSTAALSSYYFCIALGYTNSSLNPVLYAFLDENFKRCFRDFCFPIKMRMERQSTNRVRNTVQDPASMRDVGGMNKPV
Mu-type opioid receptor, sequence (P42866 whole entry): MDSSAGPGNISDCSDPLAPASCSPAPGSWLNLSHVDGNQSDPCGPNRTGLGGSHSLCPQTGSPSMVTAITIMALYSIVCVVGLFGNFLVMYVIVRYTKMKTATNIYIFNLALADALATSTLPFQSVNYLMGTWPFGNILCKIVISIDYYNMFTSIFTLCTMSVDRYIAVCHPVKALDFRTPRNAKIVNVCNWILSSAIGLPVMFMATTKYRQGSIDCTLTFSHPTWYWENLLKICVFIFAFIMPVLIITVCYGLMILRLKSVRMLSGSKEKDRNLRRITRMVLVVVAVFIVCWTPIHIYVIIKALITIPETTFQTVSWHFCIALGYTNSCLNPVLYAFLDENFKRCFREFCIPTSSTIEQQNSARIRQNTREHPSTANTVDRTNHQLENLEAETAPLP

Turning to `C=CCN1C2CCC1CN(C(c1ccc(C(=O)N(CC)CC)cc1)c1cccc(OC)c1)CC2` (mixture of isomers), the result in the data set with NG108-15 [1] and in the data set on NG108-15 [4] was Active. Besides, the Ratio Ki in the data set listed under Mus musculus [2] came out at 1330; in the data set filed under Mus musculus [5], 99.5. The negative-log Ki (pKi) (as a rule, the Ki on a negative log10 scale, so that one unit is a factor of ten) was 8.74 in [3], 6.74 on Mu-type opioid receptor and 5.61 in [6].

As to `C=CCN1CC2CC(C1)N2C(c1ccc(C(=O)N(CC)CC)cc1)c1cccc(OC)c1` (racemic), the result (in [7]; in the data set on NG108-15 [9]) was Active. The results for the Ratio Ki in the data set listed under Mus musculus [2] and in the data set filed under Mus musculus [5] were 2270 and 653, respectively. Also, the results for the negative-log Ki (pKi) (in data set [3]; on Mu-type opioid receptor; in [6]) were 8.75, 5.94 and 5.40, respectively. Moreover, the outcome in data set [8] was inactive. Besides, the Imax in data set [10] was determined as 90%.

For `C=CCN1CC2CCC(C1)N2C(c1ccc(C(=O)N(CC)CC)cc1)c1cccc(OC)c1` (racemic), the outcome (in [7]; with NG108-15 [11]; in the data set with NG108-15 [1]) was Active. The Ratio Ki in the data set listed under Mus musculus [2] stood at 882; in the data set filed under Mus musculus [5] it was 11300. In addition, the negative logarithm of the Ki (pKi) is 9.47 in [3], 5.42 at Mu-type opioid receptor and 6.52 in data set [6]. In addition, the result in data set [8] was inactive. Further, the Imax in data set [10] worked out at 90%.

As for `C=CCN1C2CCCC1CN(C(c1ccc(C(=O)N(CC)CC)cc1)c1cccc(OC)c1)CC2` (mixture of isomers), the outcome (in data set [7]; in the data set with NG108-15 [12]; in the data set with NG108-15 [9]) was Active. The Ratio Ki was determined as 467 in the data set listed under Mus musculus [2] and 104 in the data set filed under Mus musculus [5]. Besides, the figures for the pKi (in [3]; at Mu-type opioid receptor; in data set [6]) were 8.04, 6.02 and 5.37, respectively. For the same molecule, the result in data set [8] was inactive. The Imax in [10] stood at 90%.

On to `C=CCN1C[C@H](C)N([C@H](c2ccc(C(=O)N(CC)CC)cc2)c2cccc(OC)c2)C[C@H]1C` [SNC-80], for which, in data set [7], the outcome was Active. Further, the result (in data set [8]; in the data set on NG108-15 [14]) was inactive. Also, the Activity result is “tde” in the data set on NG108-15 [13], “Dose-dependent effect” in the data set with NG108-15 [15] and “Toxic” in the data set on NG108-15 [16].

Take `C=CCN1CC2CCCC(C1)N2C(c1ccc(C(=O)N(CC)CC)cc1)c1cccc(OC)c1` (racemic): the Ratio Ki in the data set listed under Mus musculus [2] was 1170; in the data set filed under Mus musculus [5] it was 1210. Further, the pKi in data set [3] was 8.73; on Mu-type opioid receptor it was 5.64; in data set [6], 5.66. In addition, the outcome with NG108-15 [12] and in the data set with NG108-15 [9] was Active.

Source of the values: ChEMBL document CHEMBL3603739, “Novel diazabicycloalkane delta opioid agonists” (Bioorg Med Chem, 2015).
